Source: patent US9944603B2, “Compounds and methods for the treatment of cystic fibrosis” (Flatley Discovery Lab, LLC, priority 2013, dated 2018)

Molecular target: T1, human F508del CFTR (Homo sapiens, UniProt P13569, DEL508-508)
T1 construct: expressed in transfected cells
Assay: CFTR-YFP Assay, CFTR Corrector Protocol (YFP flux assay)
Format: cell-based
Conditions: for Emax: normalized to the positive control, read-out: EMAX (% Efficacy, EMAX normalized to the positive control)

T1 sequence (P13569 with tags, fused parts or gaps DEL508-508): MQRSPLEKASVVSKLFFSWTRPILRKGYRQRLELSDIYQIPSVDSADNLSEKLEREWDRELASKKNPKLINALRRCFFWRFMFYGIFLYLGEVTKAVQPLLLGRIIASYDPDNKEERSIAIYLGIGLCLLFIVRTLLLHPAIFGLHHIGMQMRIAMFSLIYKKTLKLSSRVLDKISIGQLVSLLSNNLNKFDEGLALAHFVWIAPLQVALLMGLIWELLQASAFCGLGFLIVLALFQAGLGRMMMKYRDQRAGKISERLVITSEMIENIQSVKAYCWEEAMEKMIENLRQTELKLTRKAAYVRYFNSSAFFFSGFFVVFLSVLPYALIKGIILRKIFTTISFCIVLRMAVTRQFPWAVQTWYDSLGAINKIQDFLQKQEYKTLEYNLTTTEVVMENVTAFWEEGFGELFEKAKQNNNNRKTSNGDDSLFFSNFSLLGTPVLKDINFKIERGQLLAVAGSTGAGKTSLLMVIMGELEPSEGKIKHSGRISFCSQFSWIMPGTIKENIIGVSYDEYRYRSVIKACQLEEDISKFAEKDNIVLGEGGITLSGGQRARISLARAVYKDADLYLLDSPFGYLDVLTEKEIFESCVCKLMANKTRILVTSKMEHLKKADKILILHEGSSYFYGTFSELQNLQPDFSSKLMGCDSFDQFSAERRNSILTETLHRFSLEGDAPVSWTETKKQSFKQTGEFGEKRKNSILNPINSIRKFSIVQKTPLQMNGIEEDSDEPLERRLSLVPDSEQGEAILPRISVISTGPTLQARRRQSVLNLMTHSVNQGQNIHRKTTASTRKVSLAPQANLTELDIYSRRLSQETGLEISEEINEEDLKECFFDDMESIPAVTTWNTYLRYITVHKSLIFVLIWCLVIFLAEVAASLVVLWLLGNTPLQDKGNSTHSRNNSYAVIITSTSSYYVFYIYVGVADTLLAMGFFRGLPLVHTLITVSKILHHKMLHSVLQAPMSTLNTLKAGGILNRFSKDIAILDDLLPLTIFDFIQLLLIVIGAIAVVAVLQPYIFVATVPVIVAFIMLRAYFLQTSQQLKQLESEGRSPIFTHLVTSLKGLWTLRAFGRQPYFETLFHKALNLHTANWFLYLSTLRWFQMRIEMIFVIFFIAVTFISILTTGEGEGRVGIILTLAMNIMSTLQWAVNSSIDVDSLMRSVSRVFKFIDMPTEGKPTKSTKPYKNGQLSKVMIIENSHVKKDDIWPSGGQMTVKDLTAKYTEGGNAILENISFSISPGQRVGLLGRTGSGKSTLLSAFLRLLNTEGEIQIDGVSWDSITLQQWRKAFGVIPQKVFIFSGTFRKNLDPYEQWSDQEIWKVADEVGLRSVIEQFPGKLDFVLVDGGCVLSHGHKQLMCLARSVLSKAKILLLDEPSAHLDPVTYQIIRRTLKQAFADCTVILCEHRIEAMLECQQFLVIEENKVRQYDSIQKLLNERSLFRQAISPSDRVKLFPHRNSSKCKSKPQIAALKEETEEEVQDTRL

Structure (SMILES)	EC50	Emax
Cc1ccc2nc(-c3ccc(F)cc3)n(C3CCN(S(=O)(=O)c4ccc5c(c4)OC(F)(F)O5)CC3)c2n1 [Example 84]	< 10 µM	30 to 80%
CCc1ccc(S(=O)(=O)N2CCC(N(c3ccccn3)S(=O)(=O)c3ccc(Cl)cc3)CC2)cc1 [Example 235]	< 10 µM	30 to 80%
COc1ccc(S(=O)(=O)N2CCC(n3c(-c4ccccc4)nc4cccnc43)CC2)cc1C [Example 73]	< 10 µM	30 to 80%
O=S(=O)(c1ccc2c(c1)OC(F)(F)O2)N1CCC(n2c(-c3ccncc3Cl)nc3cnccc32)CC1 [Example 137]	10 to 20 µM	10 to 30%
COc1ccc(S(=O)(=O)N2CCC(n3c(-c4ccccc4)nc4cccnc43)CC2)cc1C(F)(F)F [Example 74]	< 10 µM	30 to 80%
CC(=O)N1c2ccc(S(=O)(=O)N3CCC(n4c(-c5ccncc5F)nc5cccnc54)CC3)cc2CC1C (stereo not drawn) [Example 145]	< 10 µM	10 to 30%
CCc1ccc(S(=O)(=O)N2CCC(N(c3ncccc3OC)S(=O)(=O)c3ccccc3Cl)CC2)cc1 [Example 247]	< 10 µM	30 to 80%
O=S(=O)(c1ccc2c(c1)CCO2)N1CCC(n2c(-c3ccncc3F)nc3cccnc32)CC1 [Example 117]	< 10 µM	30 to 80%
O=S(=O)(c1ccc2c(c1)OC(F)(F)O2)N1CCC(n2c(-c3ccccc3Cl)nc3cccnc32)CC1 [Example 39]	< 10 µM	30 to 80%
O=S(=O)(N1CCOCC1)N1CCC(n2c(-c3ccccc3)nc3cccnc32)CC1 [Example 67]	> 20 µM	10 to 30%
CCc1ccc(S(=O)(=O)N2CCC(N(c3ccc(C)cn3)S(=O)(=O)c3ccccc3Cl)CC2)cc1 [Example 227]	< 10 µM	10 to 30%
CCc1ccc(S(=O)(=O)N2CCC(N(c3cccc(OC)n3)S(=O)(=O)c3ccccc3Cl)CC2)cc1 [Example 222, 2-Chloro-N-(1-((4-ethylphenyl)sulfonyl)piperidin-4-yl)-N-(6-methoxypyridin-2-yl)benzenesulfonamide]	< 10 µM	10 to 30%
O=S(=O)(c1ccc2c(c1)OCO2)N1CCC(n2c(-c3ccncc3F)nc3cccnc32)CC1 [Example 107]	< 10 µM	30 to 80%
O=S(=O)(c1ccc2c(c1)OC(F)(F)O2)N1CCC(n2c(-c3ccncc3Cl)nc3cccnc32)CC1 [Example 38]	< 10 µM	> 80%
CCc1ccc(S(=O)(=O)N2CCC(N(c3ccccn3)S(=O)(=O)c3ccc(C)cc3)CC2)cc1 [Example 229]	< 10 µM	10 to 30%
COc1ccc2c(c1)nc(-c1ccncc1F)n2C1CCN(S(=O)(=O)c2ccc3c(c2)OC(F)(F)O3)CC1 [Example 150]	10 to 20 µM	30 to 80%
CCc1ccc(S(=O)(=O)N2CCC(N(c3cccc(C)n3)S(=O)(=O)c3ccccc3Cl)CC2)cc1 [Example 189]	< 10 µM	30 to 80%
COc1ccc(S(=O)(=O)N2CCC(N(C(=O)c3ccccc3Cl)c3ccccn3)CC2)cc1F [Example 203]	< 10 µM	1%
O=S(=O)(c1ccc2snc(Cl)c2c1)N1CCC(n2c(-c3ccc(F)cc3F)nc3cccnc32)CC1 [Example 159]	< 10 µM	10 to 30%
COc1ccc(N(C2CCN(S(=O)(=O)c3ccc4c(c3)OC(F)(F)O4)CC2)S(=O)(=O)c2ccccc2Cl)nc1 [Example 219]	< 10 µM	10 to 30%

Structure (SMILES)	EC50	Emax
O=S(=O)(c1ccc2c(c1)OCO2)N1CCC(n2c(-c3ccccc3C(F)(F)F)nc3cccnc32)CC1 [Example 100]	< 10 µM	10 to 30%
COc1ccc(S(=O)(=O)N2CCC(n3c(-c4ccc(C(F)(F)F)cc4)nc4cccnc43)CC2)cc1Cl [Example 78]	< 10 µM	10 to 30%
Cc1ccc2nc(-c3ccccc3Cl)n(C3CCN(S(=O)(=O)c4ccc5c(c4)OC(F)(F)O5)CC3)c2n1 [Example 86]	< 10 µM	30 to 80%
CCc1ccc(S(=O)(=O)N2CCC(N(c3ccccn3)S(=O)(=O)c3c(C)cc(C)cc3C)CC2)cc1 [Example 183]	< 10 µM	30 to 80%
COc1ccc(S(=O)(=O)N2CCC(N(C(=O)c3ccccc3)c3cccc(C)n3)CC2)cc1Cl [Example 174]	> 20 µM	10 to 30%
Cc1nc2ccc(S(=O)(=O)N3CCC(n4c(-c5ccncc5F)nc5cccnc54)CC3)cc2s1 [Example 132]	< 10 µM	30 to 80%
O=S(=O)(c1ccc2snc(Cl)c2c1)N1CCC(n2c(-c3ccncc3Cl)nc3cccnc32)CC1 [Example 157]	< 10 µM	10 to 30%
CCc1ccc(S(=O)(=O)N2CCC(N(c3ccncn3)S(=O)(=O)c3ccccc3Cl)CC2)cc1 [Example 249]	< 10 µM	30 to 80%
Cc1n[nH]c2ccc(S(=O)(=O)N3CCC(n4c(-c5ccncc5F)nc5cccnc54)CC3)cc12 [Example 141]	< 10 µM	10 to 30%
CCc1ccc(S(=O)(=O)N2CCC(N(C(=S)c3ccccc3Cl)c3ccc(OC)cc3)CC2)cc1 [Example 211]	10 to 20 µM	30 to 80%
O=S(=O)(c1ccc2c(c1)OC(F)(F)O2)N1CCC(n2c(-c3ccncc3F)nc3cccnc32)CC1 [Example 52]	< 10 µM	30 to 80%
COc1ccc2nc(-c3ccncc3F)n(C3CCN(S(=O)(=O)c4ccc5c(c4)OC(F)(F)O5)CC3)c2n1 [Example 127]	< 10 µM	30 to 80%
Cc1ccc(S(=O)(=O)N2CCC(n3c(-c4ccncc4Cl)nc4cccnc43)CC2)cc1C#N [Example 95]	10 to 20 µM	10 to 30%
CCc1ccc(S(=O)(=O)N2CCC(N(C(=O)c3ccccc3Cl)c3ccc(I)cc3)CC2)cc1 [Example 216]	< 10 µM	10 to 30%
O=S(=O)(c1ccc(OC(F)F)cc1)N1CCC(n2c(-c3ccncc3F)nc3nccnc32)CC1 [Example 129]	< 10 µM	10 to 30%
COc1ccc2c(c1)nc(-c1ccc(F)cc1F)n2C1CCN(S(=O)(=O)c2ccc3nc(C)oc3c2)CC1 [Example 164]	< 10 µM	> 80%
CCc1ccc(S(=O)(=O)N2CCC(N(C(=O)Nc3ccccc3Cl)c3ccccn3)CC2)cc1 [Example 177]	< 10 µM	10 to 30%
Cc1ccc2nc(-c3ccccc3F)n(C3CCN(S(=O)(=O)c4ccc5c(c4)OC(F)(F)O5)CC3)c2n1 [Example 83]	< 10 µM	30 to 80%
CCc1ccc(S(=O)(=O)N2CCC(N(C(=O)Nc3ccccc3)c3ccccn3)CC2)cc1 [Example 180]	10 to 20 µM	10 to 30%
COc1ccc(N(C2CCN(S(=O)(=O)c3ccc4nc(C)oc4c3)CC2)S(=O)(=O)c2ccccc2Cl)nc1 [Example 228]	10 to 20 µM	10 to 30%

Structure (SMILES)	EC50	Emax
O=S(=O)(c1ccc2cc[nH]c2c1)N1CCC(n2c(-c3ccncc3F)nc3cccnc32)CC1 [Example 162]	< 10 µM	10 to 30%
COc1ccc(S(=O)(=O)N2CCC(N(C(=O)Nc3ccccc3Cl)c3cccc(C)n3)CC2)cc1Cl [Example 176]	< 10 µM	10 to 30%
COc1ccc(S(=O)(=O)N2CCC(n3c(-c4ccccc4)cc4ccccc43)CC2)cc1Cl [Example 103]	< 10 µM	10 to 30%
O=S(=O)(c1ccc2c(c1)OC(F)(F)O2)N1CCC(n2c(-c3ccccc3OC(F)F)nc3cccnc32)CC1 [Example 126]	< 10 µM	30 to 80%
COc1ccc(S(=O)(=O)N2CCC(N(c3cccc(C)n3)S(=O)(=O)c3ccccc3)CC2)cc1Cl [Example 187]	< 10 µM	10 to 30%
CCc1ccc(S(=O)(=O)N2CCC(n3c(-c4ccncn4)nc4ccc(C)nc43)CC2)cc1 [Example 115]	< 10 µM	30 to 80%
CCc1ccc(S(=O)(=O)N2CCC(N(c3ccccn3)S(=O)(=O)c3ccccc3Cl)CC2)cc1 [Example 182]	< 10 µM	10 to 30%
CCc1ccc(S(=O)(=O)N2CCC(N(C(=O)c3ccccc3Cl)c3ccc(Br)cc3)CC2)cc1 [Example 214]	< 10 µM	10 to 30%
COc1ccc2c(c1)nc(-c1ccncc1Cl)n2C1CCN(S(=O)(=O)c2ccc3c(c2)OC(F)(F)O3)CC1 [Example 154]	< 10 µM	30 to 80%
CCc1ccc(S(=O)(=O)N2CCC(N(C(=O)c3ccccc3Cl)c3ccccc3)CC2)cc1 [Example 210]	10 to 20 µM	30 to 80%
CCc1ccc(S(=O)(=O)N2CCC(N(c3nccs3)S(=O)(=O)c3ccccc3Cl)CC2)cc1 [Example 231]	< 10 µM	30 to 80%
CCc1ccc(S(=O)(=O)N2CCC(n3c(-c4ccncn4)nc4cccnc43)CC2)cc1 [Example 131]	< 10 µM	10 to 30%
Cc1n[nH]c2ccc(S(=O)(=O)N3CCC(n4c(-c5ccc(F)cc5F)nc5cccnc54)CC3)cc12 [Example 144]	< 10 µM	10 to 30%
CCc1ccc(S(=O)(=O)N2CCC(n3c(-c4ccccc4Cl)nc4cc(OC)ccc43)CC2)cc1 [Example 155]	< 10 µM	30 to 80%
O=S(=O)(c1ccc(OC(F)F)cc1)N1CCC(n2c(-c3ccccc3Cl)nc3cccnc32)CC1 [Example 46]	< 10 µM	30 to 80%
CCc1ccc(S(=O)(=O)N2CCC(n3c(-c4ccncc4F)nc4cc(OC)ccc43)CC2)cc1 [Example 151]	< 10 µM	30 to 80%
Cc1ccc2nc(-c3ccc4c(c3)OC(F)(F)O4)n(C3CCN(S(=O)(=O)c4ccc5c(c4)OC(F)(F)O5)CC3)c2n1 [Example 87]	> 20 µM	10 to 30%
CCc1ccc(S(=O)(=O)N2CCC(N(C(=O)c3ccccc3Cl)c3ccc4c(c3)OC(F)(F)O4)CC2)cc1 [Example 209]	< 10 µM	30 to 80%
O=S(=O)(c1ccc2c(c1)OCO2)N1CCC(n2c(-c3cccnc3Cl)nc3cccnc32)CC1 [Example 92]	< 10 µM	30 to 80%
CCc1ccc(S(=O)(=O)N2CCC(N(C(=S)c3ccccc3)c3ccccn3)CC2)cc1 [Example 195]	< 10 µM	30 to 80%
